Measurements taken from paper PMC5653977 (EMBO Molecular Medicine, 2017).
Where a name gives a salt, the structure may show the parent alone.

Tested on: NRG1-ERBB4 signaling
Assay: Nrg1-ERBB4-PIK3R1 split TEV co-culture compound screen of the NIH Clinical Collection
Format: cell-based, human
From the text: For our HTS‐compatible split TEV assay approach, human full‐length ERBB4‐Cyt1 was fused to the NTEV fragment, a TEV protease cleavage site (tevS) and the artificial co‐transcriptional activator Gal4‐VP16 (ERBB4‐NTEV‐tevS‐GV); human PIK3R1 was fused to the CTEV fragment (PIK3R1‐CTEV) (Fig 1A). Upon ERBB4 activation, PIK3R1 is recruited to the receptor resulting in a reconstituted protease activity that cleaves off GV. In turn, released GV translocates to the nucleus and binds to upstream activating sequences (UAS) to activate the transcription of a firefly luciferase reporter gene (Fig 1A). A constitutively expressed Renilla luciferase driven under the control of the human thymidine kinase (TK) promoter was used as control to address off‐target effects related to toxicity.
For small molecule screening, the NIH‐NCC Clinical Collection library (sets NCC‐003 and NCC‐201) was used containing 727 small molecules that are FDA‐approved and have a history in clinical applications (www.nihclinicalcollection.com). A Hamilton Labstar robot connected to 37 and 4°C incubators for cell incubation and compound storage and application (Cytomat automated incubator, ThermoScientific) and to a luciferase reader (Berthold Technologies) was used to automatically perform the screening. […] Each batch was screened three times.
For one 96‐well plate, 4 × 10^6 PC12 cells were harvested and diluted in 5 ml assay medium (phenol red‐free DMEM (low glucose, Life Technologies), 10% FCS, 5% HS, no antibiotics). The split TEV assay plasmids (2 μg pcDNA3_ERBB4‐NTEV‐tevS‐GV‐2xHA, 2 μg pTag4C_PIK3R1‐CTEV‐2xHA, 2 μg p5xUAS_firefly luciferase, 2 μg pTK_Renilla luciferase, and 0.5 μg pECFP‐C1 for examining transfection efficiency) were diluted in 2.5 ml Opti‐MEM (Life Technologies) and vortexed. In parallel, 20 μl of the transfection reagent Lipofectamine 2000 was diluted in 2.5 ml Opti‐MEM and vortexed.
For plating of one 96‐well plate, 10 ml suspension, containing the 4 × 10^6 in solution‐transfected cells, was placed in the bubble paddle reservoir of the Hamilton Cellstar robot. 100 μl was seeded per 96‐well using the 96‐tip pipetting head. The homogeneity of the cell suspension was guaranteed over time by mild stirring using the paddling device inside the reservoir. For five plates each, 50 ml of additional cell suspension was used to allow for losses of inaccessible volume.
The cells were allowed to express the plasmids for 24 h before compounds were added. Proper expression and transfection efficiency were verified by ECFP expression on a clear control plate. The compounds were applied in a final concentration of 10 μM using DMSO as diluent. […] Thirty minutes later, 10,000 Nrg1‐expressing PC12 cells in 100 μl assay medium were seeded on top. 24 h after addition of the compounds, the cells were lysed using 40 μl Passive Lysis buffer (Promega) and subjected to a Dual Luciferase Assay (Promega) according to the manufacturer's instructions. The data were analyzed in R Bioconductor using the package cellHTS2 (http://www.bioconductor.org/packages/devel/bioc/html/cellHTS2.html), assessed using the z‐score, and visualized using the program Mondrian (http://stats.math.uni-augsburg.de/mondrian/).

[1] = compounds at 10 μM, 24 h, PC12 split TEV assay cells co-cultured with Nrg1-expressing PC12 cells, analysed with cellHTS2
[2] = NIH Clinical Collection NCC-003 raw data, compounds ranked by Z-score, 'flagged' given instead of a Z-score
[3] = compound screen of the NIH Clinical Collection, sheet raw data NCC-003, compounds ranked by Z-score

SMILES	Z-SCORE [1]	Z-SCORE [3]	also measured
CCCC1O[C@@H]2C[C@H]3[C@@H]4CCC5=CC(=O)C=C[C@]5(C)[C@H]4[C@@H](O)C[C@]3(C)[C@]2(C(=O)CO)O1 (stereo partly shown) [BUDESONIDE, reference compound]	-0.46		
CCCCNc1cc(C(=O)O)cc(S(N)(=O)=O)c1Oc1ccccc1 [BUMETANIDE, reference compound]	-0.03		
CC(NC(C)(C)C)C(=O)c1cccc(Cl)c1 (stereo not shown) [BUPROPION HYDROCHLORIDE]			Z-SCORE [2]: -2.1
C[C@H]1C[C@H]2[C@@H]3CCC4=CC(=O)C=C[C@]4(C)[C@@]3(Cl)[C@@H](O)C[C@]2(C)[C@@]1(O)C(=O)CO [Beclomethasone]		-0.67	
NS(=O)(=O)c1cc2c(cc1C(F)(F)F)NC(Cc1ccccc1)NS2(=O)=O (stereo not shown) [Bendrofluazide, reference compound]	0.53		
N#CCc1ccccc1 [Benzeneacetonitrile]		0.03	
C[C@H]1C[C@H]2[C@@H]3CCC4=CC(=O)C=C[C@]4(C)[C@@]3(F)[C@@H](O)C[C@]2(C)[C@@]1(O)C(=O)CO [Betamethasone, reference compound]	3.82		
CC(C)NCC(O)COc1ccc(CCOCC2CC2)cc1 (stereo not shown) [Betaxolol hydrochloride]		1.56	
c1ccc(-c2ccc(C(c3ccccc3)n3ccnc3)cc2)cc1 (stereo not shown) [Bifonazole, reference compound]	-3.45		Z-SCORE [2]: -3.45
Brc1c(NC2=NCCN2)ccc2nccnc12 [Brimonidine, reference compound]	0.01		
COc1cc2c(cc1OC)[C@@]13CCN4CC5=CCO[C@H]6CC(=O)N2[C@H]1[C@H]6[C@H]5C[C@H]43 [Brucine]		0.21	
COc1cc(OC)c(C(=O)CCCN2CCCC2)c(OC)c1.Cl [Buflomedil HCl]		0.75	
O=C1CC2(CCCC2)CC(=O)N1CCCCN1CCN(c2ncccn2)CC1 [Buspar, reference compound]	-0.01		
CS(=O)(=O)OCCCCOS(C)(=O)=O [Busulfan, reference compound]	0.13		
C=C1/C(=C\C=C2/CCC[C@]3(C)[C@@H]([C@H](C)/C=C/[C@@H](O)C4CC4)CC[C@@H]23)C[C@@H](O)C[C@@H]1O [CALCIPOTRIOL]		-0.04	
C=C1/C(=C\C=C2/CCC[C@]3(C)[C@@H]([C@H](C)CCCC(C)(C)O)CC[C@@H]23)C[C@@H](O)C[C@@H]1O [CALCITRIOL]		-0.48	
C[C@H](CS)C(=O)N1CCC[C@H]1C(=O)O [CAPTOPRIL, reference compound]	-0.02		
C[C@@](Cc1ccc(O)c(O)c1)(NN)C(=O)O [CARBIDOPA, reference compound]	-1.58		
CCCCCCNC(=O)n1cc(F)c(=O)[nH]c1=O [CARMOFUR]			Z-SCORE [2]: -2.48
OC[C@H]1O[C@@H](n2cnc3c(NC4CCCC4)nc(Cl)nc32)[C@H](O)[C@@H]1O [CCPA]			Z-SCORE [2]: -1.19
N[C@@H](C(=O)N[C@@H]1C(=O)N2C(C(=O)O)=C(Cl)CS[C@H]12)c1ccccc1 [CEFACLOR]		-0.62	
CC(O)CO.N[C@@H](C(=O)N[C@@H]1C(=O)N2C(C(=O)O)=C(CSc3cn[nH]n3)CS[C@H]12)c1ccc(O)cc1 [CEFATRIZINE PROPYLENE GLYCOL]		0.04	
Cc1nnc(SCC2=C(C(=O)O)N3C(=O)[C@@H](NC(=O)Cn4cnnn4)[C@H]3SC2)s1 [CEFAZOLIN SODIUM SALT, reference compound]	-0.74		
C=CC1=C(C(=O)O)N2C(=O)[C@@H](NC(=O)/C(=N\OCC(=O)O)c3csc(N)n3)[C@H]2SC1 [CEFIXIME TRIHYDRATE]		1.63	
CO/N=C(\C(=O)N[C@@H]1C(=O)N2C(C(=O)O)=C(COC(C)=O)CS[C@H]12)c1csc(N)n1 [CEFOTAXIME SODIUM SALT, reference compound]	-0.2		
CO[C@@]1(NC(=O)Cc2cccs2)C(=O)N2C(C(=O)O)=C(COC(N)=O)CS[C@@H]21 [CEFOXITIN SODIUM SALT, reference compound]	2.55		

SMILES	Z-SCORE [1]	Z-SCORE [3]	also measured
COCC1=C(C(=O)OC(C)OC(=O)OC(C)C)N2C(=O)[C@@H](NC(=O)/C(=N\OC)c3csc(N)n3)[C@H]2SC1 (stereo partly shown) [CEFPODOXIME PROXETIL]		0.53	
COCc1c(C(C)C)nc(C(C)C)c(/C=C/[C@@H](O)C[C@@H](O)CC(=O)[O-])c1-c1ccc(F)cc1.[Na+] [CERIVASTATIN Na]			Z-SCORE [2]: flagged
NC[C@H]1CC[C@H](C(=O)Oc2ccc(CCC(=O)O)cc2)CC1 [CETRAXATE HCl]		0.04	
CN1CCN(c2nc3cc(C(F)(F)F)ccc3n3cccc23)CC1.O=C(O)/C=C\C(=O)O.O=C(O)/C=C\C(=O)O [CGS 12066B]		0.3	
Nc1nc2ccc(Cl)cc2c2nc(-c3ccco3)nn12 [CGS 15943, reference compound]		6.59	
O=C(O)CCCc1ccc(N(CCCl)CCCl)cc1 [CHLORAMBUCIL, reference compound]	0.14		
CNC1=Nc2ccc(Cl)cc2C(c2ccccc2)=[N+]([O-])C1 [CHLORDIAZEPOXIDE]		0.41	
CC[C@H]1OC(=O)[C@H](C)[C@@H](O[C@H]2C[C@@](C)(OC)[C@@H](O)[C@H](C)O2)[C@H](C)[C@@H](O[C@@H]2O[C@H](C)C[C@H](N(C)C)[C@H]2O)[C@](C)(OC)C[C@@H](C)C(=O)[C@H](C)[C@@H](O)[C@]1(C)O [CLARITHROMYCIN]		0.55	
CCC(=O)O[C@]1(C(=O)CCl)[C@@H](C)C[C@H]2[C@@H]3CCC4=CC(=O)C=C[C@]4(C)[C@@]3(F)[C@@H](O)C[C@@]21C [CLOBETASOL PROPIONATE, reference compound]	-2.64		
CC(C)/N=c1\cc2n(-c3ccc(Cl)cc3)c3ccccc3nc-2cc1Nc1ccc(Cl)cc1 [CLOFAZIMINE]			Z-SCORE [2]: flagged
Clc1ccccc1C(c1ccccc1)(c1ccccc1)n1ccnc1 [CLOTRIMAZOLE]		-0.73	
C[C@]12C[C@H](O)[C@H]3[C@@H](CCC4=CC(=O)CC[C@@]43C)[C@@H]1CC[C@@H]2C(=O)CO [CORTICOSTERONE]		0.4	
CC(=O)OCC(=O)[C@@]1(O)CC[C@H]2[C@@H]3CCC4=CC(=O)CC[C@]4(C)[C@H]3C(=O)C[C@@]21C [CORTISONE ACETATE, reference compound]	0.08		
C[C@]12CCC(=O)C=C1CC[C@@H]1[C@@H]2C(=O)C[C@@]2(C)[C@H]1CC[C@]2(O)C(=O)CO [CORTISONE]		0.26	
COc1cc(CNC(=O)CCCC/C=C/C(C)C)ccc1O [Capsaicin]		-0.46	
NC(=O)N1c2ccccc2C=Cc2ccccc21 [Carbamazepine, reference compound]	-0.83		
CN(C)CCOC(c1ccc(Cl)cc1)c1ccccn1 (stereo not shown) [Carbinoxamine Maleate, reference compound]	-0.31		
COC(=O)C1=C(C)NC(C)=C(C(=O)OCCN(C)Cc2ccccc2)C1c1cccc([N+](=O)[O-])c1 (stereo not shown) [Cardene, reference compound]	-1.07		
CCCC(C)(COC(N)=O)COC(=O)NC(C)C (stereo not shown) [Carisoprodol, reference compound]	-0.82		
COc1ccccc1OCCNCC(O)COc1cccc2[nH]c3ccccc3c12 (stereo not shown) [Carvedilol]			Z-SCORE [2]: -1.89
CO/N=C(\C(=O)N[C@@H]1C(=O)N2C(C(=O)O)=C(COC(N)=O)CS[C@H]12)c1ccco1 [Cefuroxime, reference compound]	0.08		
Cc1ccc(-c2cc(C(F)(F)F)nn2-c2ccc(S(N)(=O)=O)cc2)cc1 [Celecoxib, reference compound]	-0.36		
CC1=C(C(=O)O)N2C(=O)[C@@H](NC(=O)[C@H](N)c3ccccc3)[C@H]2SC1 [Cephalexin monohydrate]			Z-SCORE [2]: -1.51
O=C(O)COCCN1CCN(C(c2ccccc2)c2ccc(Cl)cc2)CC1 (stereo not shown) [Cetirizine, reference compound]	0.89		
O=C(N[C@H](CO)[C@H](O)c1ccc([N+](=O)[O-])cc1)C(Cl)Cl [Chloramphenicol, reference compound]	0.74		
